# Assay results published in patent US11779768B2, “Protein activity modification” (Impulse Dynamics NV, priority 2004, dated 2023).
# Several values for one entry are separate records, joined by “and”; a condition that tells them apart may be missing. Equal values may be shown once.
# Legend:
# [1] = test system: dogs with intracoronary microembolization-induced chronic HF; experiment: 3 months therapy with beta-blocker alone, beta-blocker combined with CCM, or no therapy in HF dogs: LV EDV, ESV, EF; assay type: in vivo, dog
# Experimental: In a set of experiments, dogs with intracoronary microembolization-induced chronic HF (LV EF 30%-40%) were randomized to 3 months therapy with either BB (beta-blockers) alone (extended release metoprolol succinate, 100 mg once daily), extended release metoprolol succinate (100 mg, once daily) combined with CCM therapy, or to no therapy at all (Control). LV end-diastolic volume (EDV), end-systolic volume (ESV) and EF were measured before randomization (PRE) and after 3 months of therapy (POST). To determine “treatment effect”, the change A between PRE and POST therapy for each group was compared among the 3 study groups.
# normal cells = conditions: advertised; cited from earlier work
# protein kinase G = conditions: advertised; read-out: Inhibits protein kinase G IC50; cited from earlier work
# phospholamban serine-16 = experiment: Phosphorylation of PLB at serine-16 in failing LV tissue homogenate with/without protein kinase inhibitor and CCM signal (Western blot); assay type: biochemical, dog
# Experimental: (§1) The tissue homogenate was prepared in the following manner. […] The homogenate was then filtered through 4 layers of cheese cloth. The resulting homogenate was stored in ice and its protein concentration was determined by the Lowry method.
# (§2) The CCM signals were delivered to the homogenate as follows. The homogenate was diluted 2 fold in homogenate buffer and subsequently aliquotted 3 ml each in assay tubes. Assay tubes were divided into 2 sets (Set A and Set B), each subset consisting of […]. CCM signals were delivered for 10″, 30″, 1′, 5′, 30′, and 60′ in one of the sets, while the other set served as time control. The reaction was stopped by adding concentrated SDS. Protein assay on all the samples were performed by Lowry method.
# (§3) Additional experiments of tissue homogenate were carried out in the presence and absence of protein kinese inhibitors. The homogenate was the same as above, from dogs with heart failure. […] CAS 62996-74-1.
# platelet aggregation = conditions: advertised; cited from earlier work
# [2] = test system: phospholamban threonin-17; experiment: Phosphorylation of PLB at threonine-17 in failing LV tissue homogenate with/without protein kinase inhibitor and CCM signal (Western blot); assay type: biochemical, dog
# Experimental: as §1, §2, §3
# [3] = test system: human malignant glioma cell lines; conditions: advertised; cited from earlier work
# [4] = 10 sec, Control + PK Inhibitor (no CCM)
# [5] = 20 sec, Control + PK Inhibitor (no CCM)
# [6] = 30 sec, Control + PK Inhibitor (no CCM)
# [7] = CCM signals delivered for 60 sec, PK Inhibitor + CCM
smiles,measurement,setting,value
"COCCc1ccc(OCC(O)CNC(C)C)cc1 (centres unmarked) [BB, metoprolol succinate]",Treatment effect (Δ PRE to POST) LV EF,[1]; BB 100 mg once daily combined with CCM therapy,12±1%
same,"LV EDV, effect of therapy",[1]; BB alone,prevented the increase
same,"LV EF, effect of therapy",[1]; BB alone,significantly increased
same,"LV ESV, effect of therapy",[1]; BB alone,significantly reduced
same,Treatment effect (Δ PRE to POST) LV EF,"[1]; BB alone, 100 mg once daily",6±1%
same,"LV EDV, effect of therapy",[1]; BB combined with CCM,prevented the increase
same,"LV EF, effect of therapy",[1]; BB combined with CCM,significantly increased
same,"LV ESV, effect of therapy",[1]; BB combined with CCM,significantly reduced
CN[C@@H]1C[C@H]2O[C@@](C)([C@@H]1OC)n1c3ccccc3c3c4c(c5c6ccccc6n2c5c31)C(=O)NC4 [STAUROSPORIN],cell cycle of normal cells (G1 checkpoint),normal cells,Arrests normal cells at the G1 checkpoint
same,IC50,protein kinase G,8.5 nM
same,"P-PLB serine-16, single sample",phospholamban serine-16; [4],8.0 and 9.0
same,"P-PLB serine-16, single sample",phospholamban serine-16; [5],12.2 and 14.0
same,"P-PLB serine-16, Av",phospholamban serine-16; [6],9.4
same,"P-PLB serine-16, single sample",phospholamban serine-16; [6],6.8 and 9.7
same,"P-PLB serine-16, single sample","phospholamban serine-16; CCM signals delivered for 30 sec, PK Inhibitor + CCM",14.3 and 13.0
same,"P-PLB serine-16, Av",phospholamban serine-16; [7],19.9
same,"P-PLB serine-16, single sample",phospholamban serine-16; [7],22.7
same,serine-16 PLB phosphorylation response to CCM in presence of kinese inhibitor,phospholamban serine-16; HF dog LV homogenate,responded close to usual
same,platelet aggregation induced by collagen or ADP,platelet aggregation,inhibits
same,thrombin-induced platelet aggregation,platelet aggregation,no effect
same,"P-PLB threonin-17, single sample",[2]; [4],8.9 and 9.5
same,"P-PLB threonin-17, Av",[2]; [5],9.0
same,"P-PLB threonin-17, single sample",[2]; [6],8.2
same,"P-PLB threonin-17, Av","[2]; 60 sec, Control + PK Inhibitor (no CCM)",13.9
same,"P-PLB threonin-17, single sample","[2]; CCM signals delivered for 10 sec, PK Inhibitor + CCM",14.6 and 9.9 and 8.7
same,"P-PLB threonin-17, single sample","[2]; CCM signals delivered for 20 sec, PK Inhibitor + CCM",8.3 and 15.0
same,"P-PLB threonin-17, Av",[2]; [7],15.0
same,threonin-17 PLB phosphorylation response to CCM in presence of kinese inhibitor,[2]; HF dog LV homogenate,reduced and delayed response
same,apoptosis in human malignant glioma cell lines,[3],Induces apoptosis
